83 compounds from PubChem BioAssay AID624258 (Broad Institute, 2012) can be followed below.

Molecules are shown by their SMILES. Activity calls are given as the source filed them. The rule behind the calls is not given here.

The first assay can be described thus: SKN7 mediated toxicity in Saccharomyces cerevisiae, growth rescue counterscreen, dose confirmation (AID 624258).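 Note: growth read after three days of incubation at 30 °C; 0% = median of neutral control wells.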 The settings on record: S. cerevisiae SKN7-toxicity growth rescue, plate reader; at 6.8 µM (top of the series). (In general: A counterscreen serves to expose hits that act by an unwanted route or on another target.)
`Cc1ccc(NC(=S)Nc2cccc3cnccc23)cc1C`: the growth rescue activity is -25.1% (inactive).

Staying with this assay, now noted: S. cerevisiae SKN7-toxicity growth rescue, plate reader; at 19.5 µM (top of the series).
Turning to `O=C(O)CSc1cc(NS(=O)(=O)c2ccc(Cl)cc2)c2ccccc2c1O`, the growth rescue activity is -5.81% (inactive).

Consider `O=c1c2ccccc2nc(-c2cccc(Cl)c2)n1O`, for which the growth rescue activity is -66% (inactive).

As to `Cc1cccc(C)c1N1C(=O)C2ON(c3ccccc3)C(c3ccncc3)C2C1=O` (stereo not drawn), the growth rescue activity is -56.4% (inactive).

As to `O=C(c1cccs1)c1no[n+]([O-])c1C(=O)c1cccs1`, the growth rescue activity is -87.1% (inactive).

For `Cc1csc(NC(=O)C(C)Oc2ccc(Cl)cc2C)n1` (stereo not drawn), the growth rescue activity was 10.9% (inactive).

Consider `CCC(C)Sc1cccc(-c2nc3ccccn3c2NCc2ccccc2)c1` (stereo not drawn), for which the growth rescue activity was -90.6% (inactive).

Take `CCN(CC)S(=O)(=O)c1ccc(N=NC2=C(O)CC(C)(C)CC2=O)cc1`: the growth rescue activity is -10.4% (inactive).

For `CCCOc1ccc(CSCCNC(=S)Nc2ccccc2)cc1`, the growth rescue activity is 22% (inactive).

With `CC1(C)C=Cc2c(ccc3c2OC[C@@H](c2ccc(O)cc2O)C3)O1`, the growth rescue activity was -92.6% (inactive).

With `CCC(C(=O)c1ccc2ncccc2c1)c1ccccc1` (stereo not drawn), the growth rescue activity was -32.2% (inactive).

For the compound `O=C(N/N=C/c1cc(Cl)cc([N+](=O)[O-])c1O)c1ccccc1NS(=O)(=O)c1cccs1`, the growth rescue activity is -5.73% (inactive).

In the case of `O=[N+]([O-])c1cc(Oc2cccnc2)cc([N+](=O)[O-])c1`, the growth rescue activity is 5.86% (inactive).

Take `O=C(CC1CC2CCC1C2)Nc1nc(-c2ccccn2)cs1` (stereo not drawn): the growth rescue activity was -53.4% (inactive).

As for `CC(=O)Oc1ccc(OC(C)=O)c(SCCCCCCl)c1`, the growth rescue activity was -46.3% (inactive).

With `Clc1ccc(C(Cn2ccnc2)OCc2c(Cl)cccc2Cl)c(Cl)c1` (stereo not drawn), the growth rescue activity is -69.1% (inactive).

For the compound `O=c1c2ccccc2nc(-c2ccc(-c3ccccc3)cc2)n1-c1ccncc1`, the growth rescue activity is -56.1% (inactive).

In the case of `COc1ccc(N(C(=O)c2ccncc2)S(=O)(=O)c2ccccc2)cc1`, the growth rescue activity is -61.4% (inactive).

For the compound `CCCCCCCCCCCCCC(=O)NO`, the growth rescue activity was -69.6% (inactive).

On to `CCCCNc1c(-c2ccc(-c3ccc(OC)cc3)c(OC)c2)nc2ccccn12`, for which the growth rescue activity was -84.6% (inactive).

In the case of `O=C(O)c1c(NC(=O)N2CCCC2)sc2c1CCCC2`, the growth rescue activity is -88% (inactive).

Turning to `O=C(Nc1ccc(C2=NCCN2)cc1)c1ccc(C(=O)Nc2ccc(C3=NCCN3)cc2)c(Cl)c1`, the growth rescue activity is -69% (inactive).

On to `Clc1ccc(CSC(Cn2ccnc2)c2ccc(Cl)cc2Cl)cc1` (stereo not drawn), for which the growth rescue activity is -73% (inactive).

Consider `CC(C)(C)C(O)C(Cc1ccccc1Cl)n1cncn1` (stereo not drawn), for which the growth rescue activity is -53.7% (inactive).

With `CCCCCC1CCC(c2ccc(/C(N)=N/O)cc2)CC1` (stereo not drawn), the growth rescue activity was -61.8% (inactive).

Consider `CC(C)C(=O)NC(c1cccc([N+](=O)[O-])c1)c1ccc2cccnc2c1O` (stereo not drawn), for which the growth rescue activity was -62.7% (inactive).

Consider `O=C(NOC(=O)c1ccccc1)c1ccccc1`, for which the growth rescue activity was -77.5% (inactive).

As to `Cc1ccc(Sc2cc(C)nc(-c3ccccn3)n2)cc1`, the growth rescue activity is -67.1% (inactive).

As to `CC(Nc1cccc2ccccc12)C(=O)N/N=C/c1ccccn1` (stereo not drawn), the growth rescue activity was -11.5% (inactive).

For the compound `C=C(C)COc1ccc(-c2[nH]ncc2-c2ccc(Br)cc2)c(O)c1`, the growth rescue activity is -77.7% (inactive).

With `Cn1ccc(=Nc2ccc(NC(=O)c3ccc(N=c4ccn(C)c5ccc([N+](=O)[O-])cc45)cc3)cc2)cc1`, the growth rescue activity is -76.1% (inactive).

In the case of `CCCS(=O)(=O)c1c(S(=O)(=O)CCC)c2c(C)cccn2c1C(=O)N/N=C/c1cc(O)cc(O)c1`, the growth rescue activity was 22.5% (inactive).

In the case of `Cc1ccc(S(=O)(=O)/N=C2/C=C(Sc3ncn[nH]3)C(=O)c3ccccc32)cc1`, the growth rescue activity is 20.8% (inactive).

For `CCCOc1ccc(S(=O)(=O)n2cc(F)c(=O)[nH]c2=O)cc1`, the growth rescue activity was 0% (inactive).

Take `COc1ccc(/C=N/Nc2cc(C)nc(-n3nc(C)cc3C)n2)cc1`: the growth rescue activity was -51.9% (inactive).

On to `CCOC(=O)CN1C(=O)C2Cc3ccccc3CN2C1=S` (stereo not drawn), for which the growth rescue activity is 41.4% (inactive).

Turning to `c1ccc(-c2ccc(SCc3cccnc3)nn2)nc1`, the growth rescue activity is -9.85% (inactive).

As for `CC(C)CSc1n[nH]c(=S)s1`, the growth rescue activity is -51% (inactive).

Regarding `O=S1OC(c2ccccc2)c2cc(Cl)ccc21` (stereo not drawn), the growth rescue activity was -14.3% (inactive).

With `COc1ccccc1N1CCN(C(=O)CCNS(=O)(=O)c2ccc(Br)s2)CC1`, the growth rescue activity is 9.41% (inactive).

For the compound `CC(C)N1CCN(c2ccc(OCC3COC(Cn4cncn4)(c4ccc(Cl)cc4Cl)O3)cc2)CC1` (stereo not drawn), the growth rescue activity is -56.9% (inactive).

For the compound `Fc1ccccc1COc1ccc(Br)cc1CNCc1ccncc1`, the growth rescue activity was -7.59% (inactive).

For the compound `CNc1cc(CSC)nc(SCc2ccc(Cl)cc2Cl)n1`, the growth rescue activity was -57.8% (inactive).

On to `Nc1nonc1C(=O)NCCN=Cc1cc(Cc2ccccc2)cc(Br)c1O`, for which the growth rescue activity was -81% (inactive).

With `O/N=C/c1ccccc1OCc1ccc(Cl)cc1`, the growth rescue activity was 10.8% (inactive).

With `Oc1cccc(/C=N/N(Cc2ccccc2)c2ccccc2)c1`, the growth rescue activity was -91.5% (inactive).

For the compound `Cc1cccc(/C=N/NC(=O)C(C)Nc2cccc3ccccc23)n1` (stereo not drawn), the growth rescue activity was -1.71% (inactive).

Turning to `COc1ccc2[nH]c(=O)c(CN(Cc3cccnc3)C(=O)Nc3ccccc3)cc2c1`, the growth rescue activity was -61.1% (inactive).

With `O=C(CCNS(=O)(=O)c1ccc(Br)s1)N1CCN(c2ccccc2)CC1`, the growth rescue activity was -25.4% (inactive).

`CCOc1ccc(-c2[nH]ncc2Oc2cccc(OC)c2)c(O)c1`: the growth rescue activity was -63.7% (inactive).

As to `O=S(=O)(Nc1cc(Sc2ncn[nH]2)c(O)c2ccccc12)c1ccccc1`, the growth rescue activity was -4.91% (inactive).

For `Cc1ccoc1C(=O)Nc1cccc(Oc2ccccc2)c1`, the growth rescue activity was -88.5% (inactive).

On to `O=C(COC(=O)c1ccc([N+](=O)[O-])o1)NC12CC3CC(CC(C3)C1)C2`, for which the growth rescue activity was -18.4% (inactive).

Turning to `CC(=O)Nc1cccc(NC(=O)CSc2ccc(-c3ccccn3)nn2)c1`, the growth rescue activity is -39.9% (inactive).

As to `Nc1cc2nc3ccccc3oc-2cc1=O`, the growth rescue activity was -51.6% (inactive).

For the compound `O=C(c1ccccc1)N1C(=O)C(c2ccccc2)Oc2ccccc21` (stereo not drawn), the growth rescue activity was -57.4% (inactive).

With `COc1cccc(Nc2nc(-c3cccs3)nc3ccccc23)c1`, the growth rescue activity was -45.7% (inactive).

Consider `CC(C)N1CCN(c2ccc(OC[C@H]3CO[C@](Cn4cncn4)(c4ccc(Cl)cc4Cl)O3)cc2)CC1`, for which the growth rescue activity is -63.3% (inactive).

For `O=C(CN1CC[n+]2c(-c3cccs3)csc21)c1ccc(-c2ccccc2)cc1`, the growth rescue activity is -63.4% (inactive).

On to `O=C(Oc1ccccc1C(=S)N1CCOCC1)c1ccc([N+](=O)[O-])cc1[N+](=O)[O-]`, for which the growth rescue activity was -8.27% (inactive).

With `COc1ccccc1-c1sc2cc3c(cc2c1C#Cc1cncn1C)OCO3`, the growth rescue activity was -72% (inactive).

Regarding `O=C(NC(=S)N(CCc1ccccc1)CCc1ccccc1)c1ccco1`, the growth rescue activity is -9.38% (inactive).

Regarding `CCC(C)c1ccc(NC(=S)NCCn2cc(Br)cn2)cc1` (stereo not drawn), the growth rescue activity is -33.1% (inactive).

For `O=c1c(/C=N/O)coc2ccc(Cl)cc12`, the growth rescue activity was -4.03% (inactive).

`N#Cc1c(-c2ccccc2)nc2n(c1=O)CCS2`: the growth rescue activity was 27.6% (inactive).

In the case of `CC[C@@H](C(=O)[C@@H](C)[C@@H](O)[C@H](C)[C@@H]1O[C@@H]([C@@H](CC)C(=O)O)CC[C@@H]1C)[C@H]1O[C@]2(C=C[C@@H](O)[C@]3(CC[C@@](C)([C@H]4CC[C@](O)(CC)[C@H](C)O4)O3)O2)[C@H](C)C[C@@H]1C`, the growth rescue activity was -61.6% (inactive).

For `O=S(=O)(c1ccc(Oc2ccc(Br)cc2)cc1)N1CCOCC1`, the growth rescue activity was 9.57% (inactive).

As to `Oc1c(Cl)c(Cl)c(Cl)c(Cl)c1Cl`, the growth rescue activity is -82.9% (inactive).

As to `Cc1cccc(Oc2cnn(C(C)(C)C)c(=O)c2Cl)c1`, the growth rescue activity is 1.29% (inactive).

Regarding `O=C(c1ccc(-c2ccccc2)cc1)C1CCCN(C(=O)c2cncs2)C1` (stereo not drawn), the growth rescue activity is -59.8% (inactive).

For the compound `Nc1ccc(CC2=NCCN2)cc1`, the growth rescue activity was 34.1% (inactive).

As for `CCCCCCCCCCSc1n[nH]c(N)n1`, the growth rescue activity was -93.1% (inactive).

`O=C1C(=O)c2ccccc2C(O)=C1CC=C(Cl)Cl`: the growth rescue activity was -94.4% (inactive).

Regarding `Fc1ccc(N2CCN(c3ccc4c(C(F)(F)F)cc(C(F)(F)F)nc4n3)CC2)cc1`, the growth rescue activity was 53.6% (inactive).

On to `CC1(OC(=O)CCc2ccccc2)C(=O)C=C2C=C(c3ccc(C#N)cc3)N(Cc3ccco3)C=C2C1=O` (stereo not drawn), for which the growth rescue activity was 3.67% (inactive).

As for `CN(c1ccccc1)c1nc(N2CCCC2)nc(-n2ccnc2)n1`, the growth rescue activity is -4.75% (inactive).

With `CC(=O)N1CC[n+]2c(-c3ccc(Cl)cc3)csc21`, the growth rescue activity is -24.8% (inactive).

On to `COc1cc2cnc(-c3ccccc3)c(C(=O)c3ccc(F)cc3)c2cc1OC`, for which the growth rescue activity is 2.41% (inactive).

Consider `O=C(/C(=N/N=C/c1ccc(O)c(O)c1O)c1ccccc1)c1ccccc1`, for which the growth rescue activity was -75.4% (inactive).

For the compound `Oc1c(Br)cc(-c2ccccc2)cc1Br`, the growth rescue activity is -84.6% (inactive).

Regarding `Cc1ccc(NC(=S)c2nc3ccccc3[nH]2)c(C)c1`, the growth rescue activity is 32.1% (inactive).

`CC1(C)C2CCC1(C)C(OC(=O)c1ccc(O)cc1)C2` (stereo not drawn): the growth rescue activity was -86.9% (inactive).

As to `O=C1c2ccccc2-n2c1nc1ccccc1c2=O`, the growth rescue activity is -48.7% (inactive).
